The record followed here is patent US4113855A, “Composition of matter and process” (The Upjohn Company, priority 1977, dated 1978).

The test system of series [1] is P. aeruginosa Strain No. 6436. Kind of series: standard agar disc plate assay using 6.35 mm paper discs. The class given is cell-based, Pseudomonas aeruginosa. The conditions noted are these: for Zones of Inhibition: strain 6436, 0.03 ml of 1 mg/ml per 6.35 mm disc; for zone of inhibition at 1000 µg/mL: Pseudomonas aeruginosa, read-out: Zones of Inhibition.
Series [2] relates to Pseudomonas aeruginosa strains obtained from Bronson Hospital. Put plainly: antibacterial activity against hospital strains. The class given is cell-based. As to conditions: Kalamazoo.
Series [3] concerns P. aeruginosa Strain No. 6430. Put plainly: standard agar disc plate assay using 6.35 mm paper discs. The class given is cell-based, Pseudomonas aeruginosa. The conditions noted are these: for Zones of Inhibition: strain 6430, 0.03 ml of 1 mg/ml per 6.35 mm disc; for zone of inhibition at 1000 µg/mL: Pseudomonas aeruginosa, read-out: Zones of Inhibition.
Series [4] has as its system P. aeruginosa Strain No. 6431. The series is described as above. The class given is cell-based, Pseudomonas aeruginosa. The conditions noted are these: for Zones of Inhibition: strain 6431, 0.03 ml of 1 mg/ml per 6.35 mm disc; for zone of inhibition at 1000 µg/mL: Pseudomonas aeruginosa, read-out: Zones of Inhibition.
Series [5] relates to P. aeruginosa Strain No. 6434. Described as above. The class given is cell-based, Pseudomonas aeruginosa. The conditions noted are these: for Zones of Inhibition: strain 6434, 0.03 ml of 1 mg/ml per 6.35 mm disc; for zone of inhibition at 1000 µg/mL: Pseudomonas aeruginosa, read-out: Zones of Inhibition.
Series [6] concerns P. aeruginosa Strain No. 6433. The description is as above. The class given is cell-based, Pseudomonas aeruginosa. The conditions noted are these: for Zones of Inhibition: strain 6433, 0.03 ml of 1 mg/ml per 6.35 mm disc.
Series [7] relates to P. aeruginosa Strain No. 6429. The description is as above. The class given is cell-based, Pseudomonas aeruginosa. As to conditions: for Zones of Inhibition: strain 6429, 0.03 ml of 1 mg/ml per 6.35 mm disc; for zone of inhibition at 1000 µg/mL: Pseudomonas aeruginosa, read-out: Zones of Inhibition.
The subject of series [8] is P. aeruginosa Strain No. 6435. The description is as above. The class given is cell-based, Pseudomonas aeruginosa. As to conditions: for Zones of Inhibition: strain 6435, 0.03 ml of 1 mg/ml per 6.35 mm disc; for zone of inhibition at 1000 µg/mL: Pseudomonas aeruginosa, read-out: Zones of Inhibition.
In series [9] the test system is Pseudomonas aeruginosa GN-315 (UC 6149). Kind of series: antibacterial activity. The class given is cell-based.
The test system of a further series is species of Proteus. Kind of series: antibacterial activity. The class given is cell-based.
Series [10] concerns P. aeruginosa Strain No. 6436. Put plainly: nutrient broth dilution test. As to conditions: strain 6436; 32° C., 18 hours. The class given is cell-based, Pseudomonas aeruginosa. How it is done: (§1) Antibiotic 354 was also tested on a nutrient broth dilution test against the same Pseudomonas strains listed above. The test tubes were incubated at 32° C. for 18 hours.
Series [11] has as its system P. aeruginosa Strain No. 6429. Kind of series: nutrient broth dilution test. The class given is cell-based, Pseudomonas aeruginosa. The conditions noted are these: strain 6429; 32° C., 18 hours. How it is done:
as §1

In series [12] the test system is P. aeruginosa Strain No. 6433. Put plainly: nutrient broth dilution test. The class given is cell-based, Pseudomonas aeruginosa. As to conditions: strain 6433; 32° C., 18 hours. The procedure: as §1
Series [13] relates to P. aeruginosa Strain No. 6430. Kind of series: nutrient broth dilution test. The class given is cell-based, Pseudomonas aeruginosa. As to conditions: strain 6430; 32° C., 18 hours. How it is done:
as §1

In series [14] the test system is P. aeruginosa Strain No. 6435. Put plainly: nutrient broth dilution test. The class given is cell-based, Pseudomonas aeruginosa. As to conditions: strain 6435; 32° C., 18 hours. The procedure: as §1
Series [15] deals with P. aeruginosa Strain No. 6434. Put plainly: nutrient broth dilution test. The class given is cell-based, Pseudomonas aeruginosa. The conditions noted are these: strain 6434; 32° C., 18 hours. The procedure: as §1
Series [16] deals with P. aeruginosa Strain No. 6431. Kind of series: nutrient broth dilution test. The class given is cell-based, Pseudomonas aeruginosa. The conditions noted are these: strain 6431; 32° C., 18 hours. How it is done:
as §1

The next series has as its system Pseudomonas mildenbergii. Put plainly: standard disc plate assay (12.7 mm assay discs). The class given is cell-based. The conditions noted are these: 1 mg/ml, 12.7 mm discs.
In series [17] the test system is Streptococcus fecalis UC 694. Put plainly: microplate broth dilution assay using nutrient broth. The class given is cell-based. The source says: (§2) On testing antibiotic 354 by a microplate broth dilution assay using nutrient broth the following spectrum was observed.
The subject of another series is Salmonella typhi. The series is described as above. The class given is cell-based.
Text: as §2

The subject of series [18] is Klebsiella pneumoniae UC 58. The series is described as above. The class given is cell-based.
Text: as §2

Series [19] has as its system Salmonella schottmuelleri UC 126. The series is described as above. The class given is cell-based.
Text: as §2

The test system of the next series is Proteus mirabilis. The series is described as above. The class given is cell-based.
Text: as §2

Series [20] concerns Serratia marcescens UC 131. Described as above. The class given is cell-based.
Text: as §2

The test system of series [21] is Staphylococcus aureus UC 76. Described as above. The class given is cell-based.
Text: as §2

Series [22] concerns Klebsiella pneumoniae UC 57. The series is described as above. The class given is cell-based.
Text: as §2

A short description of a further series: basicity. The class given is physicochemical.
A further series concerns species of Pseudomonas. Kind of series: antibacterial activity. The class given is cell-based.
The test system of series [23] is Pseudomonas mildenbergii (UC 3029). Put plainly: agar disc plate assay, biounits. The class given is cell-based. The conditions noted are these: vs. UC 3029; BU = concentration giving a 20 mm zone of inhibition. The procedure: The assay is an agar disc plate assay using the microorganism P. mildenbergii. The agar medium is buffered with 0.1 M phosphate buffer at a pH of 7.4. A unit volume (0.08 ml) of solution containing the substance to be assayed is placed on a 12.7 mm paper disc which is then placed on an agar plate seeded with the assay organism. The agar plate is then incubated for 16-18 hours at 37° C. A biounit (BU) is defined as the concentration of the antibiotic which gives a 20 mm zone of inhibition under the above assay conditions.

The subject of the next series is Bacillus subtillis. Kind of series: standard disc plate assay (12.7 mm assay discs). The class given is cell-based. The conditions noted are these: 1 mg/ml, 12.7 mm discs.
The next series has as its system Gram-negative bacteria. Kind of series: antibacterial activity. The class given is cell-based.

For the compound Polymyxin B, the “Zones of Inhibition” value in series [1] is listed as 9 mm; in series [3] it was “trace”; in series [4], “trace”; in series [5], “trace”; in series [6] it was “trace”; in series [7], “trace”. In addition, in [8], the “Zones of Inhibition” value is “trace”. Moreover, the “activity / resistance, Bronson Hospital P. aeruginosa strains” value in series [2] is listed as “relatively resistant”.

In the case of `CCn1cc(C(=O)O)c(=O)c2ccc(C)nc21` [Nalidixic Acid], the zone of inhibition at 1000 µg/mL in series [1] is 13 mm; in [3] it was 13 mm; in series [4] it was 12 mm; in [5], 13 mm; in series [6] (Pseudomonas aeruginosa, read-out: Zones of Inhibition), 13 mm; in series [7] it was 13 mm. In series [8], the zone of inhibition at 1000 µg/mL was found to be 17 mm. Further, the “activity / resistance, Bronson Hospital P. aeruginosa strains” value in series [2] is “relatively resistant”. The “activity / resistance, P. aeruginosa GN-315” value in [9] is recorded as “resistant”.

As for `N=C1C=C[C@@]2(O)C[C@H](Cl)CN12` [Antibiotic 354], the “Zones of Inhibition” value was 22 mm in [1]; 33 mm in [3]; 22 mm in [4]; 20 mm in [5]; 21 mm in [6]; 22 mm in [7]. Besides, the “Zones of Inhibition” value in series [8] is listed as 24 mm. In the series on species of Proteus, the “activity against species of Proteus” value is on record as “very active”. The “activity / resistance, Bronson Hospital P. aeruginosa strains” value in series [2] is “active”. Also, the “Minimum Inhibitory Concentration” value in series [10] amounted to 25 µg/mL; in series [11] it was 25 µg/mL; in series [12] it was 25 µg/mL; in [13], 25 µg/mL; in series [14] it was 12.5 µg/mL; in series [15], 12.5 µg/mL. Moreover, the “Minimum Inhibitory Concentration” value was 25 µg/mL in [16]; 125 µg/mL in series [17]; 15.6 µg/mL with Salmonella typhi; 7.8 µg/mL in series [18]; 7.8 µg/mL in series [19]; 31.2 µg/mL in the series with Proteus mirabilis. Besides, the results for the “Minimum Inhibitory Concentration” value in [20], in series [21] and in [22] were 3.9 µg/mL, 31.2 µg/mL and 31.2 µg/mL, respectively. The results for the “Zone Of Inhibition” value in the series on Pseudomonas mildenbergii and in the series with Bacillus subtillis were 30 mm and 25 mm, respectively. Also, in series [9], the “activity / resistance, P. aeruginosa GN-315” value is listed as “active”. In addition, the basicity result in the series “basicity” is “strongly basic”. In addition, the “activity against species of Pseudomonas” value in the series with species of Pseudomonas is recorded as “very active”. In series [23], this compound had a potency in biounits of 8 BU/mg. The “activity against Gram-negative bacteria” value with Gram-negative bacteria is “active”.

As for `NC[C@H]1O[C@H](O[C@H]2[C@H](O)[C@@H](O[C@H]3O[C@H](CO)[C@@H](O)[C@H](N)[C@H]3O)[C@H](N)C[C@@H]2N)[C@H](O)[C@@H](O)[C@@H]1O` [Kanamycin], the zone of inhibition at 1000 µg/mL in series [1] amounted to 0 mm; in series [3], 11 mm; in [4] it was 0 mm; in [5] it was 13 mm; in series [7] it was 11 mm; in series [8], 0 mm. For the same compound, in [2], the “activity / resistance, Bronson Hospital P. aeruginosa strains” value is “relatively resistant”. Also, in series [9], the “activity / resistance, P. aeruginosa GN-315” value is recorded as “resistant”. Besides, the “Zones of Inhibition” value in series [6] is given as “trace”.

Take Gentamycin: the “Zones of Inhibition” value in series [1] was 9 mm; in [3], 14 mm; in series [4], “trace”; in series [5] it was 22 mm; in series [6], 11 mm; in series [7], 14 mm. Moreover, the “Zones of Inhibition” value in series [8] is 13 mm. Moreover, in [2], the “activity / resistance, Bronson Hospital P. aeruginosa strains” value was “relatively resistant”. Further, the “activity / resistance, P. aeruginosa GN-315” value in [9] is recorded as “resistant”.
